Source: publication PMC9552147 (Nature Communications, 2022)
Values joined by “and” are separate entries in the source; they are usually repeats but may differ in a detail not shown here. Identical values can stand only once.

Tested on: M. tuberculosis resistant mutant (lysS S491 insertion)
Type: cell-based, Mycobacterium tuberculosis

**Q.** With Nc1cc2c(c(F)n1)C(=O)N(C1CCCCC1)C2 [Compound 2] as the compound, how does the “Mutant (S491)MIC” value read?
**A.** The value was 0.11 µM and 0.095 µM.

**Q.** What about the “Mutant (S491)MIC, Ave” value of the same compound?
**A.** The value was 0.10 µM.

**Q.** For NNC(=O)c1ccncc1 [isoniazid], which “fold resistance of the resistant mutant strain compared to wild-type H37Rv (MIC)” value is on record?
**A.** Its value is “equivalent sensitivity”.
